Assays:
Format in all cases: cell-based, human
[1] = system: K562 cells; test: Loss of mitochondrial membrane potential (DiOC6 flow cytometry); settings: 2.0 μM SAHA ± 250 nM Compound I
Protocol: Determination of MMP(ΔΨm): MMP is monitored using DiOC6 [36]. For each condition, 4×10^5 cells are incubated for 15 min at 37° C. in 1 ml of 40 nM DiOC6 (Calbiochem) and subsequently analyzed using a Becton Dickinson FACScan cytofluorometer with excitation and emission settings of 488 and 525 nm, respectively. Control experiments documenting the loss of ΔΨm are performed by exposing cells to 5 μM of […] cyanide m-chlorophenylhydrazone (Sigma Chemical Co.; 15 min, 37° C.), an uncoupling agent that abolishes the MMP.

[2] = system: Raf; test: Western analysis of Raf expression in K562 cells; settings: 2.0 μM SAHA ± 250 nM Compound I, 16 hr
Protocol: Immunoblot Analysis: Immunoblotting is performed as described previously (Yu et al., Nat. Rev. Cancer 1:294-202). In brief, after drug treatment cells are pelleted by centrifugation, and lysed immediately in Laemmli buffer [1×=30 mM Tris-base (pH 6.8), 2% SDS, […] β-mercaptoethanol, and 10% glycerol], and briefly sonicated. Homogenates are quantified using Coomassie protein assay reagent (Pierce, Rockford, Ill.). Equal amounts of protein (20 μg) are boiled for 10 min, separated by SDS-PAGE (5% stacker and 10% resolving), and electroblotted to nitrocellulose membrane. After blocking in TBS-T (0.05%) and 5% milk for 1 h at 22° C., the blots are incubated in fresh blocking solution with an appropriate dilution of primary antibody for 4 h at 22° C. […]
K562 cells are treated as above, and monitored for expression of Bcl-xL, Mcl-1, and XIAP. […]

[3] = system: Compound I-resistant LAMA 84 cells (LAMA 84R); test: Apoptosis by Wright Giemsa-stained cytospin slides in resistant cells; settings: Table 7, 24 hr, Compound I (1.0 or 1.25 μM), SAHA (1.0 or 2.0)
Protocol: For studies involving the LAMA 84-R line, cells are washed free of drug and resuspended in drug-free medium 48 h before experimentation.
Assessment of Apoptosis: After drug exposures, cytocentrifuge preparations are stained with Wright-Giemsa and viewed by light microscopy to evaluate the extent of apoptosis (i.e., cell shrinkage, nuclear condensation, formation of apoptotic bodies, etc.) as described previously (Yu et al., Nat. Rev. Cancer 1:294-202). For these studies, the percentage of apoptotic cells is determined by evaluating ≧500 cells/condition in triplicate. To confirm the results of morphological analysis, Annexin V/PI staining is used. Annexin V/PI (BD PharMingen, San Diego, Calif.) analysis of cell death is carried out as per the manufacturer's instructions. In studies involving TNF and TNF soluble receptor, both compound are combined and maintained at room temperature 20 min prior to use. For these experiments 1-2×10^5 cells per condition are harvested. Analysis is carried out using a Becton-Dickinson FACScan cytofluorometer (Mansfield, Mass.). […] The slides are treated with acetic acid/ethanol (1:2), stained with terminal transferase reaction mixture containing 1× terminal transferase reaction buffer (0.25 units/μl terminal transferase, 2.5 mM CoCl2, and 2 pmol fluorescein-12-dUTM; Boehringer Mannheim, Indianapolis, Ind.), and visualized using fluorescence microscopy.

[4] = system: NB4 promyelocytic leukemia cells; test: Apoptosis by Wright Giemsa-stained cytospin slides; settings: NB4: SAHA 1.5 μM; Compound I 250 nM; 24 hr
Protocol: (§1) Experimental Format: Logarithmically growing cells are placed in sterile plastic T-flasks (Corning, Corning, N.Y.) to which are added the designated drugs and the flasks replaced in the incubator for intervals. At the end of the incubation period, cells are transferred to sterile centrifuge tubes, pelleted by centrifugation at 400×g for 10 min at room temperature, and prepared for analysis as described below.
(§2) Assessment of Apoptosis: After drug exposures, cytocentrifuge preparations are stained with Wright-Giemsa and viewed by light microscopy to evaluate the extent of apoptosis (i.e., cell shrinkage, nuclear condensation, formation of apoptotic bodies, etc.) as described previously (Yu et al., Nat. Rev. Cancer 1:294-202). For these studies, the percentage of apoptotic cells is determined by evaluating ≧500 cells/condition in triplicate. To confirm the results of morphological analysis, Annexin V/PI staining is used. Annexin V/PI (BD PharMingen, San Diego, Calif.) analysis of cell death is carried out as per the manufacturer's instructions. In studies involving TNF and TNF soluble receptor, both compound are combined and maintained at room temperature 20 min prior to use. For these experiments 1-2×10^5 cells per condition are harvested. Analysis is carried out using a Becton-Dickinson FACScan cytofluorometer (Mansfield, Mass.). To further confirm the morphology results, TUNEL staining is used. For TUNEL staining, cytocentrifuge preparations are obtained and fixed with 4% formaldehyde. The slides are treated with acetic acid/ethanol (1:2), stained with terminal transferase reaction mixture containing 1× terminal transferase reaction buffer (0.25 units/μl terminal transferase, 2.5 mM CoCl2, and 2 pmol fluorescein-12-dUTM; Boehringer Mannheim, Indianapolis, Ind.), and visualized using fluorescence microscopy.

[5] = system: U937 monocytic leukemia; test: Apoptosis by Wright Giemsa-stained cytospin slides; settings: U937: SAHA 1.5 μM; Compound I 250 nM; 24 hr
Protocol: as §1, §2

[6] = system: Jurkat lymphoblastic leukemia; test: Apoptosis by Wright Giemsa-stained cytospin slides; settings: Jurkat: SAHA 0.75 μM; Compound I 250 nM; 24 hr
Protocol: as §1, §2

[7] = system: HL-60 promyelocytic leukemia cells; test: Apoptosis by Wright Giemsa-stained cytospin slides; settings: HL-60: SAHA 1.0 μM; Compound I 250 nM; 24 hr
Protocol: as §1, §2

SMILES	percentage of cells displaying loss of mitochondrial membrane potential (ΔΨm) ([1]; 0 hours)	percentage of cells displaying loss of mitochondrial membrane potential (ΔΨm) ([1]; 6 hours)	percentage of cells displaying loss of mitochondrial membrane potential (ΔΨm) ([1]; 24 hours)	percentage of cells displaying loss of mitochondrial membrane potential (ΔΨm) ([1]; 48 hours)	expression of Raf [2]	Compound I + SAHA % of apoptotic cells [3]	% of apoptotic cells [4]	% of apoptotic cells [5]	% of apoptotic cells [6]	% of apoptotic cells [7]	percentage of cells displaying loss of mitochondrial membrane potential (ΔΨm) ([1]; 12 hours)	percentage of cells displaying loss of mitochondrial membrane potential (ΔΨm) ([1]; 18 hours)
Cc1ccc(NC(=O)c2ccc(CN3CCN(C)CC3)cc2)cc1Nc1nccc(-c2cccnc2)n1 [Compound I, N-{5-[4-(4-methyl-piperazino-methyl)-benzoylamido]-2-methylphenyl}-4-(3-pyridyl)-2-pyrimidine-amine]	5.7 ± 1.8%	8.8 ± 1.9%	17.8 ± 3.4%	41.3 ± 4.3%	little effect	14.8 ± 4.7%	1.8 ± 1.3%	0.9 ± 08%	1.1 ± 0.6%	3.1 ± 1.3%		
O=C(CCCCCCC(=O)Nc1ccccc1)NO [SAHA, suberoylanilide hydroxamic acid]	5.4 ± 1.6%	8.1 ± 1.9%	16.4 ± 2.9%	20.5 ± 2.8%	clear reduction	10.3 ± 3.4%	5.6 ± 2.3%	5.4 ± 1.9%	6.3 ± 3.2%	6.4 ± 1.9%	10.4 ± 2.1%	12.3 ± 2.8%

From patent US20060100140A1, “Combination of a) n-{5-[4-(4-methyl-piperazino-methyl)-benzoylamido]2-methylphenyl}-4- (3-pyridyl)-2-pyrimidine-amine and b) a histone deacetylase inhibitor for the treatment of leukemia” (priority 2002, published 2006)
